Where two headings read alike, the source gives them in different places.
What was measured:
[1] = Single IV infusion PK of brexanolone in dogs; assay type: in vivo; details: male Beagle dog; single IV infusion 2.0 mg/kg over 30 minutes; mean
Experimental: (§1) Following a single IV infusion in rats (1.0 mg/kg) and dogs (2.0 mg/kg) over 30 minutes, the PK parameters in Table 2 were obtained.
(§2) In the rat and dog PK studies including brexanolone IV infusion and IM administrations, brexanolone was quantified in rat and dog plasma using a sensitive and specific analytical procedure. Analytes were separated by liquid chromatography (LC) and brexanolone was detected by positive mode electrospray tandem mass spectrometry (MS/MS). The lower limit of quantitation (LLOQ) was 1.0 to 3.0 ng/mL. In the GLP study, LLOQ was 1.0 ng/mL in the rat.
(§3) Intravenous dosing of brexanolone was performed through a 30-min infusion via the jugular vein cannula (JVC) or a temporary percutaneous catheter placed into a lateral tail vein in rats, and via the cephalic vein in dogs. Different suspension formulations were also dosed intramuscularly into the rats and dogs in accordance with test facility standard operating procedures. At the designated time points, blood was collected via direct venipuncture of a cephalic or jugular vein in rats and via the cephalic or saphenous vein in dog. Blood was transferred into collection tubes containing K2EDTA anticoagulant and stored on ice until processed. Blood was processed for plasma by centrifugation. Plasma was then transferred into a 96-well container and stored in a freezer maintained at approximately −70° C. The quantitative analyses of the resulted plasma samples were conducted using a qualified LC-MS/MS method.

dog [2] = details: single IV slow bolus, cited from earlier work
[3] = 28-day continuous IV infusion, cited from earlier work
dog [4] = details: cited from earlier work
rats = details: rat, cited from earlier work
[5] = rat, 14-day continuous IV infusion, 18 mg/kg/day, cited from earlier work
[6] = Single IV infusion PK of brexanolone in rats; assay type: in vivo; details: male Sprague Dawley rat; single IV infusion 1.0 mg/kg over 30 minutes; mean
Experimental: as §1, §2, §3

rat = details: single IV slow bolus, cited from earlier work
Sprague Dawley rats = details: rat, cited from earlier work
Beagle dogs = details: dog, cited from earlier work
[7] = brexanolone IV at the MRHD of 90 μg/kg/h; cited from earlier work
[8] = 28-day continuous IV infusion, cited from earlier work; remark: listed apart in the source
[9] = dog, 14-day continuous IV infusion, 36 mg/kg/day, cited from earlier work
[10] = 5-day continuous IV infusion study
[11] = 28-day continuous IV infusion, 10, 30, 60 mg/kg/day
[12] = 28-day continuous IV infusion, 12, 36, 72 mg/kg/day

Question: With “1-(3R,5S,8R,9S,10S,13S,14S,17S)-3-hydroxy-10,13-dimethylhexadecahydro-1H-cyclopenta[a]phenanthren-17-yl) ethan-1-one [brexanolone]” as the substance, how does the AUC0-inf [1] read?
Answer: 289 ng·h/mL

Question: And the AUC0-t [1]?
Answer: 283 ng·h/mL

Question: What about the CL [1] of the same substance?
Answer: ~120 mL/min/kg

Question: And the MRTinf [1]?
Answer: 26.5 min

Question: What about the T1/2 [1] of the same substance?
Answer: ~101 min

Question: And the Vss [1]?
Answer: ~2.99 L/kg

Question: What about the “single bolus dose at which rapid anesthesia (within 1 minute) was observed” value (dog [2]; doses ≤30 mg/kg) of the same substance?
Answer: ≥ 7.5 mg/kg

Question: What about the “MTD for slow bolus administration” value (dog [2]; irregular breathing in 1 of 4 dogs at 30 mg/kg) of the same substance?
Answer: 20 mg/kg

Question: What about the “AUC0-24 h (= AUC0-672 h/28)” value ([3]; dog F, 12 mg/kg/day) of the same substance?
Answer: 1820 ng·h/mL

Question: What about the Cmax ([3]; dog F, 12 mg/kg/day) of the same substance?
Answer: 97.3 ng/mL

Question: And the “Css (= AUC0-672 h/672 h)” value ([3]; dog F, 12 mg/kg/day)?
Answer: 75.9 ng/mL

Question: What about the “AUC0-24 h (= AUC0-672 h/28)” value ([3]; dog F, 36 mg/kg/day) of the same substance?
Answer: 6960 ng·h/mL

Question: What about the Cmax ([3]; dog F, 36 mg/kg/day) of the same substance?
Answer: 338 ng/mL

Question: And the “Css (= AUC0-672 h/672 h)” value ([3]; dog F, 36 mg/kg/day)?
Answer: 290 ng/mL

Question: And the “AUC0-24 h (= AUC0-672 h/28)” value ([3]; dog F, 72 mg/kg/day)?
Answer: 11300 ng·h/mL

Question: And the Cmax ([3]; dog F, 72 mg/kg/day)?
Answer: 571 ng/mL

Question: And the “Css (= AUC0-672 h/672 h)” value ([3]; dog F, 72 mg/kg/day)?
Answer: 471 ng/mL

Question: And the “AUC0-24 h (= AUC0-672 h/28)” value ([3]; dog M, 12 mg/kg/day)?
Answer: 1680 ng·h/mL

Question: And the Cmax ([3]; dog M, 12 mg/kg/day)?
Answer: 89.3 ng/mL

Question: What about the “Css (= AUC0-672 h/672 h)” value ([3]; dog M, 12 mg/kg/day) of the same substance?
Answer: 69.9 ng/mL

Question: What about the “AUC0-24 h (= AUC0-672 h/28)” value ([3]; dog M, 36 mg/kg/day) of the same substance?
Answer: 5760 ng·h/mL

Question: And the Cmax ([3]; dog M, 36 mg/kg/day)?
Answer: 310 ng/mL

Question: What about the “Css (= AUC0-672 h/672 h)” value ([3]; dog M, 36 mg/kg/day) of the same substance?
Answer: 240 ng/mL

Question: And the “AUC0-24 h (= AUC0-672 h/28)” value ([3]; dog M, 72 mg/kg/day)?
Answer: 12900 ng·h/mL

Question: What about the Cmax ([3]; dog M, 72 mg/kg/day) of the same substance?
Answer: 708 ng/mL

Question: What about the “Css (= AUC0-672 h/672 h)” value ([3]; dog M, 72 mg/kg/day) of the same substance?
Answer: 538 ng/mL

Question: And the MTD (dog [4]; [10])?
Answer: 60 mg/kg/day

Question: And the NOAEL (dog [4]; 14-day continuous IV infusion study, convulsion in one female at 72 mg/kg/day)?
Answer: 36 mg/kg/day

Question: What about the MTD (rats; [10]) of the same substance?
Answer: 120 mg/kg/day

Question: What about the “NOAEL for poor clinical condition resulting in premature euthanasia” value (rats; 14-day continuous IV infusion study) of the same substance?
Answer: 18 mg/kg/day

Question: And the “AUC0 24 h at NOAEL” value ([5]; females)?
Answer: 1790 ng·h/mL

Question: What about the “Cmax at NOAEL” value ([5]; females) of the same substance?
Answer: 111 ng/mL

Question: And the “AUC0 24 h at NOAEL” value ([5]; males)?
Answer: 2910 ng·h/mL

Question: And the “Cmax at NOAEL” value ([5]; males)?
Answer: 196 ng/mL

Question: And the AUC0-inf [6]?
Answer: 177 ng·h/mL

Question: What about the AUC0-t [6] of the same substance?
Answer: 175 ng·h/mL

Question: What about the MRTinf [6] of the same substance?
Answer: 21.5 min

Question: What about the “single bolus dose at which rapid anesthesia (within 1 minute) was observed” value (rat; doses ≤50 mg/kg) of the same substance?
Answer: ≥ 10 mg/kg

Question: And the “maximum tolerated dose (MTD) for slow bolus administration” value (rat; shallow respiration and death of one male at 50 mg/kg)?
Answer: 30 mg/kg

Question: And the “body weight gain compared to vehicle controls” value (Sprague Dawley rats; females, 30 mg/kg/day, Day 7 to 28)?
Answer: 138%

Question: And the “body weight gain compared to vehicle controls” value (Sprague Dawley rats; females, 30 mg/kg/day, Day −1 to 7)?
Answer: 160%

Question: And the “body weight gain compared to vehicle controls” value (Sprague Dawley rats; females, 60 mg/kg/day, Day 7 to 28)?
Answer: 123%

Question: And the “body weight gain compared to vehicle controls” value (Sprague Dawley rats; females, 60 mg/kg/day, Day −1 to 7)?
Answer: 193%

Question: What about the “body weight gain compared to vehicle controls” value (Sprague Dawley rats; males, 10 mg/kg/day, first 7 days) of the same substance?
Answer: 126%

Question: What about the “body weight gain compared to vehicle controls” value (Sprague Dawley rats; males, 30 mg/kg/day, first 7 days) of the same substance?
Answer: 126%

Question: What about the “body weight gain compared to vehicle controls” value (Sprague Dawley rats; males, 60 mg/kg/day, Day 7 to 28) of the same substance?
Answer: 71%

Question: What about the “body weight gain compared to vehicle controls” value (Sprague Dawley rats; males, 60 mg/kg/day, first 7 days) of the same substance?
Answer: 132%

Question: And the “exposure at NOAEL as multiple of the human exposure at the MRHD” value (Sprague Dawley rats; 60 mg/kg/day vs human 90 μg/kg/h)?
Answer: 5 times

Question: And the mortality (Sprague Dawley rats; [11])?
Answer: no test article or vehicle-related mortalities

Question: And the “test article related clinical observations” value (Sprague Dawley rats; [11])?
Answer: No test article related clinical observations were noted

Question: And the NOAEL (Sprague Dawley rats; 28-day continuous IV infusion)?
Answer: 60 mg/kg/day

Question: And the “exposure at NOAEL relative to the human exposure at the MRHD” value (Beagle dogs; 12 mg/kg/day vs human 90 μg/kg/h)?
Answer: equivalent to the human exposure

Question: And the mortality (Beagle dogs; [12])?
Answer: no test article- or vehicle-related mortalities

Question: What about the “test article-related clinical signs” value (Beagle dogs; [12]) of the same substance?
Answer: limited to one male dosed with 36 mg/kg which had a convulsion occurring 4 days after completing the 28-day infusion

Question: What about the NOAEL (Beagle dogs; 28-day continuous IV infusion, based on convulsion in one 36 mg/kg dog and SBECD-related renal tubular vacuolation at ≥36 mg/kg) of the same substance?
Answer: 12 mg/kg/day

Question: What about the “human exposure AUC0-24h” value [7] of the same substance?
Answer: 1800 ng·h/mL

Question: What about the “human exposure Css” value [7] of the same substance?
Answer: 74.3 ng/mL

Question: What about the “AUC0-24 h (= AUC0-672 h/28)” value ([8]; rat F, 10 mg/kg/day) of the same substance?
Answer: 1410 ng·h/mL

Question: And the Cmax ([8]; rat F, 10 mg/kg/day)?
Answer: 63.1 ng/mL

Question: What about the “Css (= AUC0-672 h/672 h)” value ([8]; rat F, 10 mg/kg/day) of the same substance?
Answer: 58.8 ng/mL

Question: What about the “AUC0-24 h (= AUC0-672 h/28)” value ([8]; rat F, 30 mg/kg/day) of the same substance?
Answer: 4320 ng·h/mL

Question: And the Cmax ([8]; rat F, 30 mg/kg/day)?
Answer: 219 ng/mL

Question: And the “Css (= AUC0-672 h/672 h)” value ([8]; rat F, 30 mg/kg/day)?
Answer: 180 ng/mL

Question: What about the “AUC0-24 h (= AUC0-672 h/28)” value ([8]; rat F, 60 mg/kg/day) of the same substance?
Answer: 8110 ng·h/mL

Question: What about the Cmax ([8]; rat F, 60 mg/kg/day) of the same substance?
Answer: 441 ng/mL

Question: What about the “Css (= AUC0-672 h/672 h)” value ([8]; rat F, 60 mg/kg/day) of the same substance?
Answer: 338 ng/mL

Question: And the “AUC0-24 h (= AUC0-672 h/28)” value ([8]; rat M, 10 mg/kg/day)?
Answer: 1790 ng·h/mL

Question: What about the Cmax ([8]; rat M, 10 mg/kg/day) of the same substance?
Answer: 93.8 ng/mL

Question: And the “Css (= AUC0-672 h/672 h)” value ([8]; rat M, 10 mg/kg/day)?
Answer: 74.4 ng/mL

Question: And the “AUC0-24 h (= AUC0-672 h/28)” value ([8]; rat M, 30 mg/kg/day)?
Answer: 4890 ng·h/mL

Question: And the Cmax ([8]; rat M, 30 mg/kg/day)?
Answer: 233 ng/mL

Question: And the “Css (= AUC0-672 h/672 h)” value ([8]; rat M, 30 mg/kg/day)?
Answer: 204 ng/mL

Question: What about the “AUC0-24 h (= AUC0-672 h/28)” value ([8]; rat M, 60 mg/kg/day) of the same substance?
Answer: 9960 ng·h/mL

Question: What about the Cmax ([8]; rat M, 60 mg/kg/day) of the same substance?
Answer: 464 ng/mL

Question: And the “Css (= AUC0-672 h/672 h)” value ([8]; rat M, 60 mg/kg/day)?
Answer: 415 ng/mL

Question: And the “AUC0-24h at NOAEL” value ([9]; females)?
Answer: 3840 ng·h/mL

Question: And the “Cmax at NOAEL” value ([9]; females)?
Answer: 210 ng/mL

Question: What about the “AUC0-24h at NOAEL” value ([9]; males) of the same substance?
Answer: 3560 ng·h/mL

Question: What about the “Cmax at NOAEL” value ([9]; males) of the same substance?
Answer: 201 ng/mL
